# Reference: paper PMC5124248, “Antitumor activity of TY-011 against gastric cancer by inhibiting Aurora A, Aurora B and VEGFR2 kinases” (Journal of Experimental & Clinical Cancer Research : CR, 2016)
# Values joined by “and” are separate entries in the source; they are usually repeats but may differ in a detail not shown here. Equal values may be shown once. “Also recorded” adds a separate entry of the source. Read-outs that look alike come from different tables or passages of the source. Marks after values point to notes of the source that are not given here.
# Assays:
# [1] = test system: human MGC-803 xenograft; assay: Antitumor activity in vivo, MGC-803 xenograft in nude mice; design: species or system BALB/c nu/nu mice; details: for Inhibition rate (%): by tumor weight; for Body weight (g) End / Body weight (g) Start / Tumor volume (mm^3) End / Tumor volume (mm^3) Start / Tumor weight: mean ± SEM; for Tumor weight: control 0.79 g
# Description: The animals were housed in specific pathogen-free (SPF) conditions at Key Laboratory of Brain Functional Genomics, Ministry of Education, and were acclimatized for a week prior to use. […] When the tumors reached a mean group size of 100 ~ 150 mm^3, the mice were randomized into control and treatment groups to receive treatment accordingly. […] The tumor growth was recorded with the measurement of length (L) and width (W) by caliper every other day, and calculated as tumor volume (V) = L × W^2/2. Meanwhile, the body weights of mice were recorded. The tumor volume at day n was expressed as relative tumor volume (RTV) according to the following formula: RTV% = (TVn/TV0) ×100%, where TVn is the tumor volume at day n and TV0 is the tumor volume at day 0. The therapeutic effect of treatment was calculated with formula T/C (%) = mean RTV of the treated group/mean RTV of the control group × 100%. […] The tumor regression of individual mouse was defined as the tumor volume at the end was less than the tumor volume when treatment was initiated.
# [2] = test system: SNU-16 cells; assay: CCK-8 cell proliferation assay, SNU-16; assay type: cell-based; details: Homo sapiens; SNU-16, CCK-8, Fig. 3
# Description: (§1) During the logarithmic growth phase, each cell line was seeded in a 96-well tissue culture plate (Thermo Fisher Scientific, Waltham, MA, USA) at a predetermined density in complete medium, attached overnight and treated with compound for the indicated time. The medium was discarded and replaced with 10% CCK-8 (Dojindo, Kumamoto, Japan) in complete medium, then incubated the plates for another 2 h. The OD450 was measured with SpectraMax M5 (Molecular Devices, CA, USA). A background absorbance of ODblank was subtracted from all wells. The survival rate was determined with following formula: Survival rate (%) = ODcompound/ODDMSO × 100%. The IC50 values were calculated by concentration − response curve fitting using the four parameter method.
# [3] = test system: HUVECs; assay: VEGF- or FBS-induced HUVEC proliferation assay (CCK-8); assay type: cell-based, human; details: for IC50: Homo sapiens, HUVEC
# Description: as §1
# In VEGF-induced HUVEC proliferation assay, HUVECs cells were seeded in a 96-well tissue culture plate at a predetermined density in HUVEC basic medium with 0.5% FBS. After the cells attached, cells were treated with different concentration of TY-011 in the presence of 50 ng/ml VEGF165 (R&D systems, Minneapolis, MN, USA) or 10% FBS. The CCK-8 assay as above was used for determination of cell viability.
# [4] = 3 mg/kg oral once a day for 13 days
# [5] = 6 mg/kg oral once a day for 13 days
# [6] = 9 mg/kg oral once a day for 13 days
smiles,measurement,setting,value
"CCc1cc2c(cn1)C(c1ccccc1Cl)=Nc1c(n[nH]c1C)N2 [TY-011, 9-(2-chloro-phenyl)-6-ephyl-1-methyl-2,4-dihydro-2,3,4,7,10-pentaaza-benzo[f]azulene]",T/C (%),[1]; [4],54.55%
same,TGI (%),[1]; [4],59.41%
same,Inhibition rate (%),[1]; [4],64.9%
same,Body weight (g) End,[1]; [4],21.8 ± 0.1 g
same,Body weight (g) Start,[1]; [4],20.8 ± 0.1 g
same,Tumor volume (mm^3) End,[1]; [4],433.6 ± 16.2*** mm^3
same,Tumor volume (mm^3) Start,[1]; [4],192.8 ± 7.1 mm^3
same,Tumor weight,[1]; [4],0.28 g and 0.28 ± 0.02 g
same,T/C (%),[1]; [5],21.82%
same,TGI (%),[1]; [5],103.77%
same,tumor regression (share of mice),"[1]; 6 mg/kg oral once a day for 13 days, 6/8 mice",75%
same,Inhibition rate (%),[1]; [5],87.7%
same,Body weight (g) End,[1]; [5],20.3 ± 0.2 g
same,Body weight (g) Start,[1]; [5],20.9 ± 0.1 g
same,Tumor volume (mm^3) End,[1]; [5],168.8 ± 7.1*** mm^3
same,Tumor volume (mm^3) Start,[1]; [5],191.2 ± 6.2 mm^3
same,Tumor weight,[1]; [5],0.10 g and 0.10 ± 0.01 g
same,T/C (%),[1]; [6],14.53%
same,TGI (%),[1]; [6],113.09%
same,tumor regression (share of mice),"[1]; 9 mg/kg oral once a day for 13 days, 8/8 mice",100%
same,Inhibition rate (%),[1]; [6],89.0%
same,Body weight (g) End,[1]; [6],21.7 ± 0.1 g
same,Body weight (g) Start,[1]; [6],21.4 ± 0.1 g
same,Tumor volume (mm^3) End,[1]; [6],111.4 ± 3.6*** mm^3
same,Tumor volume (mm^3) Start,[1]; [6],189.0 ± 4.9 mm^3
same,Tumor weight,[1]; [6],0.09 g and 0.09 ± 0.01 g
same,drug-related deaths and body weight of mice,"[1]; 3, 6 and 9 mg/kg oral once a day for 13 days",did not affect the body weight of mice; also recorded: did not cause drug-related deaths or any loss in body weight of mice
same,"damages to vital organs (heart, liver, spleen, lung and kidney) or clinical signs","[1]; mice treated with TY-011, data not shown",no obvious damages to vital organs
same,IC50,[2],90 ± 20 nM
same,IC50 in cells treated with VEGF lower than in cells treated with FBS,[3]; 72 h,13 fold
same,IC50,"[3]; 50 ng/ml VEGF165, 72 h, read-out: VEGF IC50",461 ± 61.8 nM
same,IC50,"[3]; 10% FBS, 72 h, read-out: FBS IC50",6100 ± 16.4 nM
